Source: patent US20250188095A1, “DISUBSTITUTED OCTAHYDROPYRROLO[3,4-c]PYRROLYL METHYL KETONE DERIVATIVE AND USE THEREOF” (JIANGSU NHWA PHARMACEUTICAL CO., LTD, priority 2022, published 2025)

Key:
[1] = target: OX2 receptor (Homo sapiens (Human), UniProt O43614); assay: In vitro activity test (Cisbio IP-one, CHO-K1-OX2 cells, antagonism of EC80 agonist); type: cell-based
Procedure: (§1) (1) Preparation of a reaction buffer (1×Stimulation buffer) required for the experiment: The 5×Stimulation buffer and ddH2O in the Cisbio IP-one kit were diluted in a ratio of 1:4 for later use.
(§2) (2) Compound preparation: The compound was diluted with DMSO to obtain a 5 mM stock solution, followed by a 3.16-fold dilution to obtain 10 gradients, and then the prepared compound was diluted with the Stimulation buffer to the corresponding concentrations (4×) for later use.
(§3) (3) Cell preparation: CHO-K1-OX1 and CHO-K1-OX2 cells on the culture dish were digested with trypsin, and the cells were washed off with culture medium and collected into 5 mL centrifuge tubes. The cells were centrifuged at 1000 rpm for 5 min, and the supernatant was discarded. 3 mL of PBS was added, and the mixture was gently pipetted to be mixed well. The cells were centrifuged again at 1000 rpm for 5 min, and the supernatant was discarded. The cells were resuspended in 1×Stimulation buffer and counted using a Countstar cell counter, and the cell density was adjusted to 1.71×10^6 cells/mL for later use.
(§4) (4) Cell addition: The cell suspensions were added to assay plates at 7 μL/well (i.e., about 12,000 cells/well).
(§5) (5) Compound addition: The compound diluted with the Stimulation buffer was added to the assay plates described above at 3.5 μL/well.
(§6) (6) Reaction and incubation: After gentle shaking, the assay plates were incubated at 37° C. for 30 min.
(§7) (7) EC80 agonist addition: 4×Orexin A (OX1 receptor) and 4×Orexin 2 receptor agonist (OX2 receptor) solutions of EC80 were added at 3.5 μL/well.
(§8) (8) Reaction and incubation: After gentle shaking, the assay plates were incubated at 37° C. for 45 min.
(§9) (9) Detection reagent addition: IP1-d2 and Anti-IP1 cryptate were separately diluted in a 1:20 ratio with the Lysis & detection buffer in the Cisbio IP-one detection kit, and the diluted IP1-d2 and Anti-IP1 cryptate described above were added to the assay plates, each at 3 μL/well. After shaking, the assay plates were left to stand at room temperature for 60 min.
(§10) (10) Experimental readings: The plate was read on Envision, readings from the 665 nm and 615 nm channels were taken, and the ratio of 665 nm/615 nm readings was calculated.
(§11) Based on the antagonistic effect values of the compound sample at different concentration test points, antagonistic curves of the compound sample against the orexin receptors were fitted using GraphPad Prism software, and the IC50 was calculated.

[2] = target: OX1 receptor (Homo sapiens (Human), UniProt O43613); assay: In vitro activity test (Cisbio IP-one, CHO-K1-OX1 cells, antagonism of EC80 Orexin A); type: cell-based
Procedure: as §1, §2, §3, §4, §5, §6, §7, §8, §9, §10, §11

Chain of OX1 receptor (O43613 whole entry): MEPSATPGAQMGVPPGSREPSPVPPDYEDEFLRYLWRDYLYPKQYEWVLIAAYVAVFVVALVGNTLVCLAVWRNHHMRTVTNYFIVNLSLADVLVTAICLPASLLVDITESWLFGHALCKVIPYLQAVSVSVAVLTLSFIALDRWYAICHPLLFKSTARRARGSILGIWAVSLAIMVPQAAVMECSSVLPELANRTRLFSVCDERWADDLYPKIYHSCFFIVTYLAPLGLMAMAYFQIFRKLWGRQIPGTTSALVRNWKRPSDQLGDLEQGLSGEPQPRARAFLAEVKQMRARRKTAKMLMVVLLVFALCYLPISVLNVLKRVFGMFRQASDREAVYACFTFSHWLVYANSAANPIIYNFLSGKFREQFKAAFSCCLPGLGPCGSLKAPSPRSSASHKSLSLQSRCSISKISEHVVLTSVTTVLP
Chain of OX2 receptor (O43614 whole entry): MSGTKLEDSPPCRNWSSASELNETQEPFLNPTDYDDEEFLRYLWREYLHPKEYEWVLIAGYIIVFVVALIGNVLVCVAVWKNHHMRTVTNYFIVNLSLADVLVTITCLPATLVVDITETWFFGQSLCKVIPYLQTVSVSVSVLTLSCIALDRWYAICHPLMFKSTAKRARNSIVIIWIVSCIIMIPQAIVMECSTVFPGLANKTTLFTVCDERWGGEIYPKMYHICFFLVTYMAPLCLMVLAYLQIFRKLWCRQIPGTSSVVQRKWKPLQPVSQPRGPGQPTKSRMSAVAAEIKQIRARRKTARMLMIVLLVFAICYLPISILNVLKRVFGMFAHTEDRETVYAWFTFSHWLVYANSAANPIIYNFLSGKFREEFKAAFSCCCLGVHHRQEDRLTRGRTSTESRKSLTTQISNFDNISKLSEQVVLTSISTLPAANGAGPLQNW

IC50 [1] | IC50 [2] | Structure (SMILES)
100 to 300 nM | > 1000 nM | Cc1cc(C)nc(N2C[C@H]3CN(C(=O)c4c(-c5ccccc5)cn5ccccc45)C[C@H]3C2)n1 [Example 1, ((3aR,6aS)-5-(4,6-dimethylpyrimidin-2-yl)hexahydropyrrolo[3,4-c]pyrrol-2(1H)-yl)(2-phenylindolizin-1-yl)methanone]
100 to 300 nM | > 1000 nM | Cc1cc(C)nc(N2C[C@H]3CN(C(=O)c4c(-c5ccccn5)cn5ccccc45)C[C@H]3C2)n1 [Example 2, ((3aR,6aS)-5-(4,6-dimethylpyrimidin-2-yl)hexahydropyrrolo[3,4-c]pyrrol-2(1H)-yl)(2-(pyridin-2-yl)indolizin-1-yl)methanone]
< 100 nM | > 1000 nM | Cc1cc(C)nc(N2C[C@H]3CN(C(=O)c4c(-c5ccc(C)s5)cn5ccccc45)C[C@H]3C2)n1 [Example 4, ((3aR,6aS)-5-(4,6-dimethylpyrimidin-2-yl)hexahydropyrrolo[3,4-c]pyrrol-2(1H)-yl)(2-(5-methylthiophen-2-yl)indolizin-1-yl)methanone]
100 to 300 nM | > 1000 nM | O=C(c1c(-c2ncccc2F)cn2ccccc12)N1C[C@@H]2CN(c3cnc4ccccc4n3)C[C@@H]2C1 [Example 10, (2-(3-Fluoropyridin-2-yl)indolizin-1-yl)((3aR,6aS)-5-(quinoxalin-2-yl)hexahydropyrrolo[3,4-c]pyrrol-2(1H)-yl)methanone]
100 to 300 nM | > 1000 nM | Cc1cc(C)nc(N2C[C@H]3CN(C(=O)c4c(-c5ccccc5)nn5ccncc45)C[C@H]3C2)n1 [Example 13, ((3aR,6aS)-5-(4,6-dimethylpyrimidin-2-yl)hexahydropyrrolo[3,4-c]pyrrol-2(1H)-yl)(2-phenylpyrazolo[1,5-a]pyrazin-3-yl)methanone]
100 to 300 nM | > 1000 nM | Cc1cc(C)nc(N2C[C@H]3CN(C(=O)c4c(-c5ccccc5)nn5ncccc45)C[C@H]3C2)n1 [Example 14, ((3aR,6aS)-5-(4,6-dimethylpyrimidin-2-yl)hexahydropyrrolo[3,4-c]pyrrol-2(1H)-yl)(2-phenylpyrazolo[1,5-b]pyridazin-3-yl)methanone]
< 100 nM | > 1000 nM | Cc1cc(C)nc(N2C[C@H]3CN(C(=O)c4c(-c5ccccc5F)cn5ccccc45)C[C@H]3C2)n1 [Example 15, ((3aR,6aS)-5-(4,6-dimethylpyrimidin-2-yl)hexahydropyrrolo[3,4-c]pyrrol-2(1H)-yl)(2-(2-fluorophenyl)indolizin-1-yl)methanone]
< 100 nM | > 1000 nM | Cc1cc(C)nc(N2C[C@H]3CN(C(=O)c4c(-c5ncccc5F)cn5cc(F)ccc45)C[C@H]3C2)n1 [Example 18, ((3aR,6aS)-5-(4,6-dimethylpyrimidin-2-yl)hexahydropyrrolo[3,4-c]pyrrol-2(1H)-yl)(6-fluoro-2-(3-fluoropyridin-2-yl)indolizin-1-yl)methanone]
< 100 nM | > 1000 nM | Cc1cc(C)nc(N2C[C@H]3CN(C(=O)c4c(-c5ncco5)cn5ccccc45)C[C@H]3C2)n1 [Example 20, ((3aR,6aS)-5-(4,6-dimethylpyrimidin-2-yl)hexahydropyrrolo[3,4-c]pyrrol-2(1H)-yl)(2-(oxazol-2-yl)indolizin-1-yl)methanone]
< 100 nM | > 1000 nM | Cc1nc(N2C[C@H]3CN(C(=O)c4c(-c5ccccn5)cn5ccccc45)C[C@H]3C2)nc(C)c1F [Example 24, ((3aR,6aS)-5-(5-fluoro-4,6-dimethylpyrimidin-2-yl)hexahydropyrrolo [3,4-c]pyrrol-2(1H)-yl)(2-(pyridin-2-yl)indolizin-1-yl)methanone]

Continued, molecule first:

Structure (SMILES) | IC50 [1] | IC50 [2]
Cc1cc(C)nc(N2C[C@H]3CN(C(=O)c4c(-c5ccccn5)nn5ccccc45)C[C@H]3C2)n1 [Example 6, ((3aR,6aS)-5-(4,6-dimethylpyrimidin-2-yl)hexahydropyrrolo[3,4-c]pyrrol-2(1H)-yl)(2-(pyridin-2-yl)pyrazolo[1,5-a]pyridin-3-yl)methanone] | < 100 nM | > 1000 nM
Cc1nc(N2C[C@H]3CN(C(=O)c4c(-c5ncccc5F)cn5ccccc45)C[C@H]3C2)nc2ccoc12 [Example 7, (2-(3-fluoropyridin-2-yl)indolizin-1-yl)((3aR,6aS)-5-(4-methylfuro [3,2-d]pyrimidin-2-yl)hexahydropyrrolo[3,4-c]pyrrol-2(1H)-yl)methanone] | < 100 nM | > 1000 nM
Cc1nc(N2C[C@H]3CN(C(=O)c4c(-c5ncccc5F)cn5ccccc45)C[C@H]3C2)nn2cccc12 [Example 8, (2-(3-Fluoropyridin-2-yl)indolizin-1-yl)((3aR,6aS)-5-(4-methylpyrrolo [2,1-f][1,2,4]triazin-2-yl)hexahydropyrrolo[3,4-c]pyrrol-2(1H)-yl)methanone] | < 100 nM | > 1000 nM
Cc1cc(C)nc(N2C[C@H]3CN(C(=O)c4c(-c5nccs5)cn5ccccc45)C[C@H]3C2)n1 [Example 9, ((3aR,6aS)-5-(4,6-dimethylpyrimidin-2-yl)hexahydropyrrolo[3,4-c]pyrrol-2(1H)-yl)(2-(thiazol-2-yl)indolizin-1-yl)methanone] | 100 to 300 nM | > 1000 nM
Cc1cc(C)nc(N2C[C@H]3CN(C(=O)c4c(-c5ncccc5C(F)(F)F)cn5ccccc45)C[C@H]3C2)n1 [Example 11, ((3aR,6aS)-5-(4,6-dimethylpyrimidin-2-yl)hexahydropyrrolo[3,4-c]pyrrol-2(1H)-yl)(2-(3-(trifluoromethyl)pyridin-2-yl)indolizin-1-yl)methanone] | 100 to 300 nM | > 1000 nM
Cc1cc(C)nc(N2C[C@H]3CN(C(=O)c4c(-c5ccccc5)nn5cccnc45)C[C@H]3C2)n1 [Example 12, ((3aR,6aS)-5-(4,6-dimethylpyrimidin-2-yl)hexahydropyrrolo[3,4-c]pyrrol-2(1H)-yl)(2-phenylpyrazolo[1,5-a]pyrimidin-3-yl)methanone] | 100 to 300 nM | > 1000 nM
Cc1cc(C)nc(N2C[C@H]3CN(C(=O)c4c(-c5ccsc5)cn5ccccc45)C[C@H]3C2)n1 [Example 17, ((3aR,6aS)-5-(4,6-dimethylpyrimidin-2-yl)hexahydropyrrolo[3,4-c]pyrrol-2(1H)-yl)(2-(thiophen-3-yl)indolizin-1-yl)methanone] | < 100 nM | –
Cc1cc(C)nc(N2C[C@H]3CN(C(=O)c4c(-c5ccccn5)cn5cc(F)ccc45)C[C@H]3C2)n1 [Example 19, ((3aR,6aS)-5-(4,6-dimethylpyrimidin-2-yl)hexahydropyrrolo[3,4-c]pyrrol-2(1H)-yl)(6-fluoro-2-(pyridin-2-yl)indolizin-1-yl)methanone] | < 100 nM | > 1000 nM
Cc1cc(C)nc(N2C[C@H]3CN(C(=O)c4c(-c5ncccn5)cn5ccccc45)C[C@H]3C2)n1 [Example 21, ((3aR,6aS)-5-(4,6-dimethylpyrimidin-2-yl)hexahydropyrrolo[3,4-c]pyrrol-2(1H)-yl)(2-(pyrimidin-2-yl)indolizin-1-yl)methanone] | < 100 nM | > 1000 nM
Cc1nc(N2C[C@H]3CN(C(=O)c4c(-c5ncccc5F)cn5ccccc45)C[C@H]3C2)nc2c1CCC2 [Example 26, (2-(3-fluoropyridin-2-yl)indolizin-1-yl)((3aR,6aS)-5-(4-methyl-6,7-dihydro-5H-cyclopenta[d]pyrimidin-2-yl)hexahydropyrrolo[3,4-c]pyrrol-2(1H)-yl)methanone] | < 100 nM | > 1000 nM
Cc1cc(C)nc(N2C[C@H]3CN(C(=O)c4c(-c5cccs5)cn5ccccc45)C[C@H]3C2)n1 [Example 28] | < 100 nM | > 1000 nM
